In patent US20230159532A1, “PARATHYROID HORMONE (PTH) RECEPTOR ANTAGONISTS AND USES THEREOF” (Crinetics Pharmaceuticals, Inc., priority 2021, published 2023):

Target: T1, human PTHR1 receptor (Homo sapiens, UniProt Q03431)
T1 construct: purchased Eurofins HTS030M
T1 sequence (Q03431 27-593): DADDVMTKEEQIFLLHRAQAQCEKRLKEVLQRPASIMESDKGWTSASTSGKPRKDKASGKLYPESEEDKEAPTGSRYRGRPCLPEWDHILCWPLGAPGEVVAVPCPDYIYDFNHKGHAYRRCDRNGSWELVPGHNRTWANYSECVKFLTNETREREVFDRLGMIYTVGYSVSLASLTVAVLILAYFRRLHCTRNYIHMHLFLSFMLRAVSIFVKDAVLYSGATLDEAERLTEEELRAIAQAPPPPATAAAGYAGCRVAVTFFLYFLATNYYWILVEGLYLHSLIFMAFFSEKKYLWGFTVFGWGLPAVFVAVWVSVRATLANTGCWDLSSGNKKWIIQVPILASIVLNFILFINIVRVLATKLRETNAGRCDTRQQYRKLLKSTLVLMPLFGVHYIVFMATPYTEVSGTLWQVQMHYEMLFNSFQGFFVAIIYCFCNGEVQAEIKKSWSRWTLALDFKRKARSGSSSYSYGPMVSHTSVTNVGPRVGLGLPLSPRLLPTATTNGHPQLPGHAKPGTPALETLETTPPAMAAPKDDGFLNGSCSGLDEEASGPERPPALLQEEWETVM
Assay: Competitive antagonist binding assay for hPTH-R1 (radioactive competition binding, SPA beads)
Conditions: human PTHR1 membranes, [125I]-[Nle8,18,Tyr34]-PTH(1-34) 0.2 nM, 90 minutes at room temperature; read-out: hPTHR1 Ki
In short: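 Human PTHR1 membranes on SPA beads incubated 90 min at room temperature with compound (typically 0-10,000 nM final) and 0.2 nM [125I]-[Nle8,18,Tyr34]-PTH(1-34) in HEPES buffer with MgCl2, CaCl2, BSA, Triton X-100 and protease inhibitors, pH 7.4. Scintillation signal read; Ki values derived.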

SMILES	Ki
CCN1C(=O)N(c2ncc(NCCNC)cc2F)c2cc(Cl)ccc2-c2cc(Cl)cnc21 [2-11, 4,13-dichloro-8-ethyl-10-(3-fluoro-5-{[2-(methylamino)ethyl]amino}pyridin-2-yl)-6,8,10-triazatricyclo[9.4.0.0^2,7]pentadeca-1(11),2(7),3,5,12,14-hexaen-9-one]	< 100 nM
CCN1C(=O)N(c2c(F)cc(NCCNCCS(=O)(=O)O)cc2F)c2cc(C#N)ccc2-c2cc(Cl)cnc21 [1-141, 2-({2-[(4-{4-chloro-13-cyano-8-ethyl-9-oxo-6,8,10-triazatricyclo[9.4.0.0^2,7]pentadeca-1(11),2(7),3,5,12,14-hexaen-10-yl}-3,5-difluorophenyl)amino]ethyl}amino)ethane-1-sulfonic acid]	< 100 nM
CCN1C(=O)N(c2c(F)cc(NCCNC[C@@H](O)CO)cc2F)c2cc(C#N)ccc2-c2cc(F)cnc21 [1-194, 10-{4-[(2-{[(2R)-2,3-dihydroxypropyl]amino}ethyl)amino]-2,6-difluorophenyl}-8-ethyl-4-fluoro-9-oxo-6,8,10-triazatricyclo[9.4.0.0^2,7]pentadeca-1(11),2(7),3,5,12,14-hexaene-13-carbonitrile]	< 100 nM
CCN1C(=O)N(c2c(F)cc(NCCNCCC(C)(C)C(=O)O)cc2F)c2cc(C#N)ccc2-c2cc(Cl)cnc21 [1-209, 4-({2-[(4-{4-chloro-13-cyano-8-ethyl-9-oxo-6,8,10-triazatricyclo[9.4.0.0^2,7]pentadeca-1(11),2(7),3,5,12,14-hexaen-10-yl}-3,5-difluorophenyl)amino]ethyl}amino)-2,2-dimethylbutanoic acid]	< 100 nM
CCN1C(=O)N(c2c(F)cc(NCCNCCCC(=O)O)cc2F)c2cc(C#N)cc(C)c2-c2cc(F)cnc21 [1-68, 4-({2-[(4-{13-cyano-8-ethyl-4-fluoro-15-methyl-9-oxo-6,8,10-triazatricyclo[9.4.0.0^2,7]pentadeca-1(11),2(7),3,5,12,14-hexaen-10-yl}-3,5-difluorophenyl)amino]ethyl}amino)butanoic acid]	< 100 nM
CCN1C(=O)N(c2c(F)cc(NCCNC)cc2F)c2cc(Cl)cc(Cl)c2-c2cc(F)cnc21 [1-38, 13,15-dichloro-10-(2,6-difluoro-4-{[2-(methylamino)ethyl]amino}phenyl)-8-ethyl-4-fluoro-6,8,10-triazatricyclo[9.4.0.0^2,7]pentadeca-1(11),2(7),3,5,12,14-hexaen-9-one]	< 100 nM
CCN1C(=O)N(c2c(F)cc(NCCNCCO)cc2F)c2cc(F)ccc2-c2cc(Cl)cnc21 [1-129, 4-chloro-10-[2,6-difluoro-4-({2-[(2-hydroxyethyl)amino]ethyl}amino)phenyl]-8-ethyl-13-fluoro-6,8,10-triazatricyclo[9.4.0.0^2,7]pentadeca-1(11),2(7),3,5,12,14-hexaen-9-one]	< 100 nM
CCN1C(=O)N(c2c(F)cc(NCCNC)cc2F)c2cc(Cl)ccc2-c2cc(Cl)cnc21 [1-8, 4,13-dichloro-10-(2,6-difluoro-4-{[2-(methylamino)ethyl]amino}phenyl)-8-ethyl-6,8,10-triazatricyclo[9.4.0.0^2,7]pentadeca-1(11),2(7),3,5,12,14-hexaen-9-one]	< 100 nM
CCNCCNc1cc(F)c(N2C(=O)N(CC)c3ncc(Cl)cc3-c3ccc(C#N)cc32)c(F)c1 [1-133, 4-chloro-8-ethyl-10-(4-{[2-(ethylamino)ethyl]amino}-2,6-difluorophenyl)-9-oxo-6,8,10-triazatricyclo[9.4.0.0^2,7]pentadeca-1(11),2(7),3,5,12,14-hexaene-13-carbonitrile]	< 100 nM
Cc1cc(Cl)cc2c1-c1cc(F)cnc1N(C)C(=O)N2c1c(F)cc(NCCNCCO)cc1F [1-76, 13-chloro-10-[2,6-difluoro-4-({2-[(2-hydroxyethyl)amino]ethyl}amino)phenyl]-4-fluoro-8,15-dimethyl-6,8,10-triazatricyclo[9.4.0.0^2,7]pentadeca-1(11),2(7),3,5,12,14-hexaen-9-one]	< 100 nM
CCN1C(=O)N(c2c(F)cc(NCCNC3CCOCC3)cc2F)c2cc(Cl)ccc2-c2cc(C)cnc21 [1-27, 13-chloro-10-[2,6-difluoro-4-({2-[(oxan-4-yl)amino]ethyl}amino)phenyl]-8-ethyl-4-methyl-6,8,10-triazatricyclo[9.4.0.0^2,7]pentadeca-1(11),2(7),3,5,12,14-hexaen-9-one]	< 100 nM
CCN1C(=O)N(c2c(F)cc(N3CC(CN)C3)cc2F)c2cc(C#N)ccc2-c2cc(F)cnc21 [1-123, 10-{4-[3-(aminomethyl)azetidin-1-yl]-2,6-difluorophenyl}-8-ethyl-4-fluoro-9-oxo-6,8,10-triazatricyclo[9.4.0.0^2,7]pentadeca-1(11),2(7),3,5,12,14-hexaene-13-carbonitrile]	< 100 nM
CCN1C(=O)N(c2c(F)cc(NCCNCCNC(=O)NC)cc2F)c2cc(C#N)ccc2-c2cc(Cl)cnc21 [1-166, 1-[2-({2-[(4-{4-chloro-13-cyano-8-ethyl-9-oxo-6,8,10-triazatricyclo[9.4.0.0^2,7]pentadeca-1(11),2(7),3,5,12,14-hexaen-10-yl}-3,5-difluorophenyl)amino]ethyl}amino)ethyl]-3-methylurea]	< 100 nM
CCN1C(=O)N(c2c(F)cc(NCCN)cc2F)c2cc(Cl)ccc2-c2cccnc21 [1-3, 10-{4-[(2-aminoethyl)amino]-2,6-difluorophenyl}-13-chloro-8-ethyl-6,8,10-triazatricyclo[9.4.0.0^2,7]pentadeca-1(11),2(7),3,5,12,14-hexaen-9-one]	< 100 nM
CCN1C(=O)N(c2c(F)cc(N[C@@H](C)CNCCO)cc2F)c2cc(Cl)ccc2-c2cc(Cl)cnc21 [1-71, 4,13-dichloro-10-(2,6-difluoro-4-{[(2S)-1-[(2-hydroxyethyl)amino]propan-2-yl]amino}phenyl)-8-ethyl-6,8,10-triazatricyclo[9.4.0.0^2,7]pentadeca-1(11),2(7),3,5,12,14-hexaen-9-one]	< 100 nM
CCN1C(=O)N(c2c(F)cc(NCCNC)cc2F)c2cc(C#N)ccc2-c2cc(F)ccc21 [3-19, 8-(2,6-difluoro-4-{[2-(methylamino)ethyl]amino}phenyl)-10-ethyl-14-fluoro-9-oxo-8,10-diazatricyclo[9.4.0.0^2,7]pentadeca-1(11),2(7),3,5,12,14-hexaene-5-carbonitrile]	< 100 nM
CCN1C(=O)N(c2c(F)cc(NCCNCCC(=O)O)cc2F)c2cc(C#N)ccc2-c2cc(Cl)cnc21 [1-178, 3-({2-[(4-{4-chloro-13-cyano-8-ethyl-9-oxo-6,8,10-triazatricyclo[9.4.0.0^2,7]pentadeca-1(11),2(7),3,5,12,14-hexaen-10-yl}-3,5-difluorophenyl)amino]ethyl}amino)propanoic acid]	< 100 nM
CCN1C(=O)N(c2c(F)cc(NCCNCCNS(C)(=O)=O)cc2F)c2cc(C#N)ccc2-c2cc(Cl)cnc21 [1-150, N-[2-({2-[(4-{4-chloro-13-cyano-8-ethyl-9-oxo-6,8,10-triazatricyclo[9.4.0.0^2,7]pentadeca-1(11),2(7),3,5,12,14-hexaen-10-yl}-3,5-difluorophenyl)amino]ethyl}amino)ethyl]methanesulfonamide]	< 100 nM
CCN1C(=O)N(c2c(F)cc(NCCNCCCC(=O)O)cc2F)c2cc(Cl)ccc2-c2cc(F)cnc21 [1-16, 4-({2-[(4-{13-chloro-8-ethyl-4-fluoro-9-oxo-6,8,10-triazatricyclo[9.4.0.0^2,7]pentadeca-1(11),2(7),3,5,12,14-hexaen-10-yl}-3,5-difluorophenyl)amino]ethyl}amino)butanoic acid]	< 100 nM
CCN1C(=O)N(c2ccc(NCCNCCO)cc2F)c2cc(Cl)ccc2-c2cc(Cl)cnc21 [2-7, 4,13-dichloro-8-ethyl-10-[2-fluoro-4-({2-[(2-hydroxyethyl)amino]ethyl}amino)phenyl]-6,8,10-triazatricyclo[9.4.0.0^2,7]pentadeca-1(11),2(7),3,5,12,14-hexaen-9-one]	< 100 nM
CCN1C(=O)N(c2c(F)cc(NCCNCCNC(=O)NC)cc2F)c2cc(C#N)ccc2-c2cc(F)cnc21 [1-172, 1-[2-({2-[(4-{13-cyano-8-ethyl-4-fluoro-9-oxo-6,8,10-triazatricyclo[9.4.0.0^2,7]pentadeca-1(11),2(7),3,5,12,14-hexaen-10-yl}-3,5-difluorophenyl)amino]ethyl}amino)ethyl]-3-methylurea]	< 100 nM
CCN1C(=O)N(c2c(F)cc(N3CC[C@H](N)C3)cc2F)c2cc(Cl)ccc2-c2cc(Cl)cnc21 [1-43, 10-{4-[(3S)-3-aminopyrrolidin-1-yl]-2,6-difluorophenyl}-4,13-dichloro-8-ethyl-6,8,10-triazatricyclo[9.4.0.0^2,7]pentadeca-1(11),2(7),3,5,12,14-hexaen-9-one]	< 100 nM
CCN1C(=O)N(c2c(F)cc(NCCNCC(C)O)cc2F)c2cc(C#N)ccc2-c2cc(Cl)cnc21 (centres unmarked) [1-137, 4-chloro-10-[2,6-difluoro-4-({2-[(2-hydroxypropyl)amino]ethyl}amino)phenyl]-8-ethyl-9-oxo-6,8,10-triazatricyclo[9.4.0.0^2,7]pentadeca-1(11),2(7),3,5,12,14-hexaene-13-carbonitrile]	< 100 nM
